Measurements taken from patent US20240199635A1, “TETRAHYDROTHIENO PYRIDINE DERIVATIVES AS DDRS INHIBITORS” (CHIESI FARMACEUTICI S.P.A., priority 2021, published 2024).

Columns and labels:
[1] = target: DDR2 (Homo sapiens (Human), UniProt Q16832); test: DDR2 binding assay (LanthaScreen Europium Kinase Binding assay); settings: potency class, read-out: Ki DDR2
Experimental: (§1) DDR1 and DDR2 binding assays were performed using Life Technologies LanthaScreen™ Europium Kinase Binding assay. The compounds were incubated with 5 nM DDR1 (Carna Biosciences) or 5 nM DDR2 (Life Technologies) for 1 hour at room temperature in white 384-well OptiPlate (PerkinElmer), containing 20 nM or 10 nM Kinase Tracer 178 respectively and 2 nM Europium labelled anti-GST antibody (Life Technologies) in assay buffer (50 mM HEPES pH 7.5, 10 mM MgCl2, 1 mM EGTA and 0.01% BRIJ35).
(§2) The ratio of fluorescence emission 665 nm/615 nm after excitation at 340 nm was obtained using the Tecan Spark 20M plate reader. IC50 values were determined in GraphPad Prism 7.0 software, using 4 parameter model: log(inhibitor) vs. response. IC50 values were converted in Ki using the Cheng-Prusoff equation (Ki=IC50/(1+[Tracer]/Kd).

[2] = target: T1, DDR1 (Homo sapiens (Human), UniProt Q08345); test: DDR1 binding assay (LanthaScreen Europium Kinase Binding assay); settings: potency class, read-out: Ki DDR1
Experimental: as §1, §2

[3] = target: T1, DDR1; test: DDR1 cell based assay (PathHunter U2OS DDR1 assay); settings: U2OS-DDR1 cells, Type II Collagen stimulation, potency class
Experimental: The inhibition of DDR1 receptor activation by compounds was evaluated by PathHunter® U2OS DDR1 assay (Eurofins DiscoverX), according to the manufacturer's instructions. Briefly, U2OS-DDR1 cells were seeded in white 384-well plates at a density of 5000 cells/well and incubated for 2 hours at 37° C. and 5% CO2. Cells were then treated with compounds at different concentrations and incubated for 30 minutes, before stimulation with bovine Type II Collagen 20 μg/ml and incubation overnight at 37° C. and 5% CO2. PathHunter Detection Reagents were prepared according to the protocol provided by DiscoverX and 20 μl/well of this mix were added to each well. After incubating the plates for 1 hour at room temperature in the dark, luminescence signal was acquired with a plate reader. Raw data were normalized to vehicle control (0% for normalization) and positive control (100% for normalization; cells treated with 20 μg/ml collagen II) and IC50 parameters were calculated in GraphPad Prism 8.0 software, using sigmoidal dose-response curve fitting with variable slope.

Chain of DDR2 (Q16832 22-855): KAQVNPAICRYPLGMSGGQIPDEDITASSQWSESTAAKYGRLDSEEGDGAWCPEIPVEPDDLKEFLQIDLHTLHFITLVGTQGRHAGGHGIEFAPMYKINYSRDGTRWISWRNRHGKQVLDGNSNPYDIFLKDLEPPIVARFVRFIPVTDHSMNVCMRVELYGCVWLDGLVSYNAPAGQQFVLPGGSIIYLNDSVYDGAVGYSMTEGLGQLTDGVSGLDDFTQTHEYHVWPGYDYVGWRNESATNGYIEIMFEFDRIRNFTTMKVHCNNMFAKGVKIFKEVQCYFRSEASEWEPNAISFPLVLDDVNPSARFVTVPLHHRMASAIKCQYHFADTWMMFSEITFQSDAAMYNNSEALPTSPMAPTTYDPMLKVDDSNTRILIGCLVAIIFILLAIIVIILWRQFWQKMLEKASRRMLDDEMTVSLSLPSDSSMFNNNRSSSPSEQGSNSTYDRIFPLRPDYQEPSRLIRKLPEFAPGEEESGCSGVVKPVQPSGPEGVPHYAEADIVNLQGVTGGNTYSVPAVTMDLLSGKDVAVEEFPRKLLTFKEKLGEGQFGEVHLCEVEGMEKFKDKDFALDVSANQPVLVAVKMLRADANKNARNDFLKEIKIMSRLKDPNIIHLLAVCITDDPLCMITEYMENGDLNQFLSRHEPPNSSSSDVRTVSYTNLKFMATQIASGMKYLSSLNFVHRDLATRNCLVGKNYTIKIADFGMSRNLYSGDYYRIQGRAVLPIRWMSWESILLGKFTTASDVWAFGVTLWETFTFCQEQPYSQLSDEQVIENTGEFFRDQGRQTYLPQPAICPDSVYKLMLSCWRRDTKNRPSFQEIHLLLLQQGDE
T1 sequence (Q08345 19-913): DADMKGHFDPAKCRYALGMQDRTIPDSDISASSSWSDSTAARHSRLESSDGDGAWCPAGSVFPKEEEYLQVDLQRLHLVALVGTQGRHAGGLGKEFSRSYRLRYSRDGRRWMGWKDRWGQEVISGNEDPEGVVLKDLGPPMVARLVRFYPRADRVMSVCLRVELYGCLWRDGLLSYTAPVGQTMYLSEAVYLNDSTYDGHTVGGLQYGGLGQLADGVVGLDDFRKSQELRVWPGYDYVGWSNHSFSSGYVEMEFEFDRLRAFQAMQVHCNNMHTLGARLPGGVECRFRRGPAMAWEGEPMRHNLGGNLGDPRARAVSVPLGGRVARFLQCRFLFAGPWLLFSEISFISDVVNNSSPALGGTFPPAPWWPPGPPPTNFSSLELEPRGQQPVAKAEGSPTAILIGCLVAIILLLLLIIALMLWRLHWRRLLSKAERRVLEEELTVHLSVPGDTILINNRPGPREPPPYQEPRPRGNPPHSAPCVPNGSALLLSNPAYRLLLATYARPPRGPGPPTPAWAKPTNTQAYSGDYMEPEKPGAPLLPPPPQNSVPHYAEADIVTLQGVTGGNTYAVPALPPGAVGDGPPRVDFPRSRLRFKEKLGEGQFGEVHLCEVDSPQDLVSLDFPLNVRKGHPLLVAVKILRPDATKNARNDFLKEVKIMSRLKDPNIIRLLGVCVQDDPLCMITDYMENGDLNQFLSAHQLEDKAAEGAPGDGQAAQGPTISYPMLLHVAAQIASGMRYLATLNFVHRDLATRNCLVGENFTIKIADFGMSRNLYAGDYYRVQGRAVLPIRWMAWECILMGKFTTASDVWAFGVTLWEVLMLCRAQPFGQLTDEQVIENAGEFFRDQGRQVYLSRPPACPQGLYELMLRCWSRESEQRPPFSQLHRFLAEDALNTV

SMILES	Ki [1]	Ki [2]	IC50 [3]
CN1CCN(Cc2cc(NC(=O)c3csc4c3CCN(Cc3cccnc3)C4)cc(C(F)(F)F)c2)CC1 [Example 1, N-(3-((4-methylpiperazin-1-yl)methyl)-5-(trifluoromethyl)phenyl)-6-(pyridin-3-ylmethyl)-4,5,6,7-tetrahydrothieno[2,3-c]pyridine-3-carboxamide]	25 to 50 nM	< 25 nM	50 to 80 nM
CN1CCN(Cc2cc(NC(=O)c3csc4c3CCN(Cc3cncnc3)C4)cc(C(F)(F)F)c2)CC1 [Example 2, N-(3-((4-methylpiperazin-1-yl)methyl)-5-(trifluoromethyl)phenyl)-6-(pyrimidin-5-ylmethyl)-4,5,6,7-tetrahydrothieno[2,3-c]pyridine-3-carboxamide]	50 to 80 nM	25 to 50 nM	50 to 80 nM
Cn1nc(C(C)(C)C)cc1NC(=O)c1csc2c1CCN(Cc1cnc(N)nc1)C2 [Example 26, 6-((2-aminopyrimidin-5-yl)methyl)-N-(3-(tert-butyl)-1-methyl-1H-pyrazol-5-yl)-4,5,6,7-tetrahydrothieno[2,3-c]pyridine-3-carboxamide]	25 to 50 nM	< 25 nM	25 to 50 nM
CN(C)Cc1ccc(NC(=O)c2csc3c2CCN(Cc2cnc(N)nc2)C3)cc1C(F)(F)F [Example 56, 6-((2-aminopyrimidin-5-yl)methyl)-N-(4-((dimethylamino)methyl)-3-(trifluoromethyl)phenyl)-4,5,6,7-tetrahydrothieno[2,3-c]pyridine-3-carboxamide]	25 to 50 nM	< 25 nM	25 to 50 nM
O=C(Nc1cncc(C(F)(F)F)c1)c1csc2c1CCN(Cc1cccnc1)C2 [Example 34, 6-(pyridin-3-ylmethyl)-N-(5-(trifluoromethyl)pyridin-3-yl)-4,5,6,7-tetrahydrothieno[2,3-c]pyridine-3-carboxamide]	< 25 nM	< 25 nM	25 to 50 nM
Nc1nccnc1CN1CCc2c(C(=O)Nc3cccc(C(F)(F)F)c3)csc2C1 [Example 27, 6-((3-aminopyrazin-2-yl)methyl)-N-(3-(trifluoromethyl)phenyl)-4,5,6,7-tetrahydrothieno[2,3-c]pyridine-3-carboxamide]	< 25 nM	< 25 nM	< 25 nM
O=C(Nc1cc(F)cc(C(F)(F)F)c1)c1csc2c1CCN(Cc1cnc(NCCO)nc1)C2 [Example 44, N-(3-fluoro-5-(trifluoromethyl)phenyl)-6-((2-((2-hydroxyethyl)amino)pyrimidin-5-yl)methyl)-4,5,6,7-tetrahydrothieno[2,3-c]pyridine-3-carboxamide]	< 25 nM	< 25 nM	25 to 50 nM
CN(C)Cc1cc(NC(=O)c2csc3c2CCN(Cc2cnc(N)nc2)C3)cc(C(F)(F)F)n1 [Example 57, 6-((2-aminopyrimidin-5-yl)methyl)-N-(2-((dimethylamino)methyl)-6-(trifluoromethyl)pyridin-4-yl)-4,5,6,7-tetrahydrothieno[2,3-c]pyridine-3-carboxamide]	25 to 50 nM	< 25 nM	25 to 50 nM
Nc1ncccc1CN1CCc2c(C(=O)Nc3cc(F)cc(C(F)(F)F)c3)csc2C1 [Example 43, 6-((2-aminopyridin-3-yl)methyl)-N-(3-fluoro-5-(trifluoromethyl)phenyl)-4,5,6,7-tetrahydrothieno[2,3-c]pyridine-3-carboxamide]	< 25 nM	< 25 nM	< 25 nM
N#Cc1cc(NC(=O)c2csc3c2CCN(Cc2cncnc2)C3)cc(C(F)(F)F)c1 [Example 14, N-(3-cyano-5-(trifluoromethyl)phenyl)-6-(pyrimidin-5-ylmethyl)-4,5,6,7-tetrahydrothieno[2,3-c]pyridine-3-carboxamide]	< 25 nM	< 25 nM	< 25 nM
COCCNc1ncc(CN2CCc3c(C(=O)Nc4cc(F)cc(C(F)(F)F)c4)csc3C2)cn1 [Example 41, N-(3-fluoro-5-(trifluoromethyl)phenyl)-6-((2-((2-methoxyethyl)amino)pyrimidin-5-yl)methyl)-4,5,6,7-tetrahydrothieno[2,3-c]pyridine-3-carboxamide]	< 25 nM	< 25 nM	50 to 80 nM
Nc1ncc(CN2CCc3c(C(=O)Nc4ccc(Cl)c(C(F)(F)F)c4)csc3C2)cn1 [Example 61, 6-((2-aminopyrimidin-5-yl)methyl)-N-(4-chloro-3-(trifluoromethyl)phenyl)-4,5,6,7-tetrahydrothieno[2,3-c]pyridine-3-carboxamide]	< 25 nM	< 25 nM	< 25 nM
COc1cncc(CN2CCc3c(C(=O)Nc4cccc(C(F)(F)F)c4)csc3C2)c1 [Example 21, 6-((5-methoxypyridin-3-yl)methyl)-N-(3-(trifluoromethyl)phenyl)-4,5,6,7-tetrahydrothieno[2,3-c]pyridine-3-carboxamide]	< 25 nM	< 25 nM	< 25 nM
Nc1ncc(CN2CCc3c(C(=O)Nc4cccc(C(F)(F)F)c4)csc3C2)cn1 [Example 28, 6-((2-aminopyrimidin-5-yl)methyl)-N-(3-(trifluoromethyl)phenyl)-4,5,6,7-tetrahydrothieno[2,3-c]pyridine-3-carboxamide]	< 25 nM	< 25 nM	< 25 nM

Next, values leading:

Ki [1]	Ki [2]	IC50 [3]	SMILES
< 25 nM	< 25 nM	50 to 80 nM	O=C(Nc1cccc(C(F)(F)F)c1)c1csc2c1CCN(Cc1cncc(N3CCS(=O)(=O)CC3)c1)C2 [Example 30, 6-((5-(1,1-dioxidothiomorpholino)pyridin-3-yl)methyl)-N-(3-(trifluoromethyl)phenyl)-4,5,6,7-tetrahydrothieno[2,3-c]pyridine-3-carboxamide]
< 25 nM	< 25 nM	< 25 nM	O=C(Nc1ccc(F)c(OC(F)(F)F)c1)c1csc2c1CCN(Cc1cncnc1)C2 [Example 10, N-(4-fluoro-3-(trifluoromethoxy)phenyl)-6-(pyrimidin-5-ylmethyl)-4,5,6,7-tetrahydrothieno[2,3-c]pyridine-3-carboxamide]
< 25 nM	< 25 nM	25 to 50 nM	COc1cncc(CN2CCc3c(C(=O)Nc4cc(C(C)(C)C)no4)csc3C2)c1 [Example 65, N-(3-(tert-butyl)isoxazol-5-yl)-6-((5-methoxypyridin-3-yl)methyl)-4,5,6,7-tetrahydrothieno[2,3-c]pyridine-3-carboxamide]
< 25 nM	< 25 nM	50 to 80 nM	COc1ncncc1CN1CCc2c(C(=O)Nc3cc(CN4CC[C@@H](N(C)C)C4)cc(C(F)(F)F)c3)csc2C1 [Example 52, (R)-N-(3-((3-(dimethylamino)pyrrolidin-1-yl)methyl)-5-(trifluoromethyl)phenyl)-6-((4-methoxypyrimidin-5-yl)methyl)-4,5,6,7-tetrahydrothieno[2,3-c]pyridine-3-carboxamide]
< 25 nM	< 25 nM	25 to 50 nM	O=C(Nc1cccc(C(F)(F)F)c1)c1csc2c1CCN(Cc1cncc(Cl)c1)C2 [Example 20, 6-((5-chloropyridin-3-yl)methyl)-N-(3-(trifluoromethyl)phenyl)-4,5,6,7-tetrahydrothieno[2,3-c]pyridine-3-carboxamide]
< 25 nM	< 25 nM	< 25 nM	COc1cncc(CN2CCc3c(C(=O)Nc4cncc(C(F)(F)F)c4)csc3C2)c1 [Example 32, 6-((5-methoxypyridin-3-yl)methyl)-N-(5-(trifluoromethyl)pyridin-3-yl)-4,5,6,7-tetrahydrothieno[2,3-c]pyridine-3-carboxamide]
< 25 nM	< 25 nM	25 to 50 nM	CN(C)[C@@H]1CCN(Cc2cc(NC(=O)c3csc4c3CCN(Cc3cncc(-c5cnn(C)c5)c3)C4)cc(C(F)(F)F)c2)C1 [Example 54, (R)-N-(3-((3-(dimethylamino)pyrrolidin-1-yl)methyl)-5-(trifluoromethyl)phenyl)-6-((5-(1-methyl-1H-pyrazol-4-yl)pyridin-3-yl)methyl)-4,5,6,7-tetrahydrothieno[2,3-c]pyridine-3-carboxamide]
< 25 nM	< 25 nM	25 to 50 nM	CN(C)Cc1cc(NC(=O)c2csc3c2CCN(Cc2cnc(N)nc2)C3)cc(C(F)(F)F)c1 [Example 55, 6-((2-aminopyrimidin-5-yl)methyl)-N-(3-((dimethylamino)methyl)-5-(trifluoromethyl)phenyl)-4,5,6,7-tetrahydrothieno[2,3-c]pyridine-3-carboxamide]
< 25 nM	< 25 nM	25 to 50 nM	O=C(Nc1cccc(C(F)(F)F)c1)c1csc2c1CCN(Cc1cncc(C(F)(F)F)c1)C2 [Example 23, N-(3-(trifluoromethyl)phenyl)-6-((5-(trifluoromethyl)pyridin-3-yl)methyl)-4,5,6,7-tetrahydrothieno[2,3-c]pyridine-3-carboxamide]
